For the test, the system named is alpha-secretase. The test can be described thus: Effect of purified Bryoids on alpha-secretase activity in SHSY-5Y neuroblastoma cells (FIG. 10). The following applies: 10-^9M, FIG. 10, relative to Bryostatin-1. In kind it is cell-based. The text has this:
FIG. 10 depicts the effect of Bryostatin-1 and different Bryoids at 10-^9M on alpha-secretase activity in SHSY-5Y neuroblastoma cells;
Purified Bryoids at 10-^9M are shown to increase alpha-secretase activity in SHSY-5Y neuroblastoma cells in FIG. 10.

Regarding `CCC/C=C/C=C/C(=O)O[C@H]1[C@H]2C=C3C[C@H]([C@@H](C)O)OC(=O)C[C@H](O)C[C@@H]4C[C@H](OC(C)=O)C(C)(C)[C@](O)(C[C@@H]5C/C(=C\C(=O)OC)C[C@H](/C=C/C(C)(C)[C@]1(OC(=O)C2)O3)O5)O4` [Bryoid B3, Bryostatin-3], the alpha-secretase activity result is recorded as “improve the production of alpha-secretase over Bryostatin-1”.

bryostatin-3 26-ketone [Bryoid B16]: the alpha-secretase activity result is “improve the production of alpha-secretase over Bryostatin-1”.
